Assay results: patent US20250388589A1, “TRICYCLIC HETEROCYCLIC DERIVATIVES, COMPOSITIONS AND USES THEREOF” (Danatlas Pharmaceuticals Co., Ltd., priority 2022, published 2025)

Tests used:
Kuramochi cell line = test: Cell Viability Assay (Cell Titer-Glo, 7 days); type: cell-based; details: 168 h, Kuramochi cells, 7 days incubation, read-out: PARG Cell viability (IC50)
Procedure, shortened: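 Kuramochi cells in RPMI with 10% FBS, seeded at 400 cells/well, were treated with a 9-point 3-fold dilution series in duplicate for 7 days at 37 °C, 5% CO2. Viability by CellTiter-Glo luminescence, normalised to DMSO and medium-only controls; IC50 from 4-parameter Hill fit.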

[1] = target: hPARG (C-terminal His6-tag) (Homo sapiens (Human), UniProt Q86W56); test: PARG Enzymatic Activity Assay (HTRF); type: biochemical; details: hPARG 65 pM final, biotinylated-NAD ribosylated PARP1 8 nM final
Procedure, shortened: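 E. coli-expressed enzyme (65 pM final) preincubated 60 min RT with compounds (10-point 4-fold dilution, duplicate) in 50 mM Tris pH 7.4, 3 mM EDTA, 1 mM DTT, 50 mM KCl, 0.01% Tween 20. Biotinylated-NAD ribosylated PARP1 substrate (8 nM final) reacted 10 min RT; Eu-streptavidin/anti-6HIS-XL665 HTRF read 665/620 nm after 60 min. IC50 from 4-parameter Hill fit.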

Sequence of hPARG (C-terminal His6-tag) (Q86W56 whole entry): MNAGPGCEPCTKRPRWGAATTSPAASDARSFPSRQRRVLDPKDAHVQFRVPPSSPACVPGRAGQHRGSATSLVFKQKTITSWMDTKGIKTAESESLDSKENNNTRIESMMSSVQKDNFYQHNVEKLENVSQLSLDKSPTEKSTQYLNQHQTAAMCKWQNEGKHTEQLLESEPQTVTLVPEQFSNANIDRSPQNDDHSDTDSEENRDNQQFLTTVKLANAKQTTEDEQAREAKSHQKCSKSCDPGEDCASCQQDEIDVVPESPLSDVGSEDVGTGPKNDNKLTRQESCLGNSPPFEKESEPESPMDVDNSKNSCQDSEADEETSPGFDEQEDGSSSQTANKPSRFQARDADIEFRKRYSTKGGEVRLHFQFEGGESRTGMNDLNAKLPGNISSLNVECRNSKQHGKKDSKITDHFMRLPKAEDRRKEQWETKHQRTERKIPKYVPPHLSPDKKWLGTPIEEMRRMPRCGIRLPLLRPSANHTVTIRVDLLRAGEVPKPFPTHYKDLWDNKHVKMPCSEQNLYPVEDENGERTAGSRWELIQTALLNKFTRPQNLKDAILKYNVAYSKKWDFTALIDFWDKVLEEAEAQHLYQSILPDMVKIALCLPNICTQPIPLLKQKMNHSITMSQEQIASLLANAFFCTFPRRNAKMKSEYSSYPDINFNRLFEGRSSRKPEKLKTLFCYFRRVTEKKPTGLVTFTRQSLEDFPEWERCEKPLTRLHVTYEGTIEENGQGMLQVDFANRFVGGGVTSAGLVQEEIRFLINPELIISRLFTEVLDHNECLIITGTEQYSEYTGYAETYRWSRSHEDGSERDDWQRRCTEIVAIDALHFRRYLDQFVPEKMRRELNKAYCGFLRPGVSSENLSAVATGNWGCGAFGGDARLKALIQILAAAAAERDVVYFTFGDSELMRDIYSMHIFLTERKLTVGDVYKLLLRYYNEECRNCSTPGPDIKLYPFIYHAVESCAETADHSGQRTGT

| Compound | IC50 (Kuramochi cell line) [nM] | IC50 [1] [nM] |
| --- | --- | --- |
| N#CC1(NS(=O)(=O)c2ccc3c4c(N5C[C@@H]6C[C@H]5CO6)ncnc4n(-c4nnc(C(F)F)s4)c3c2)CC1 [Example 177, 4-((1S,4S)-2-oxa-5-azabicyclo[2.2.1]heptan-5-yl)-N-(1-cyanocyclopropyl)-9-(5-(difluoromethyl)-1,3,4-thiadiazol-2-yl)-9H-pyrimido[4,5-b]indole-7-sulfonamide] | < 100 | < 100 |
| CC(C)C(=O)N1C[C@@H](C)N(c2ncnc3c2c2ccc(S(=O)(=O)NC4(C#N)CC4)cc2n3-c2nnc(C(F)F)s2)C[C@@H]1C [Example 33, N-(1-Cyanocyclopropyl)-9-(5-(difluoromethyl)-1,3,4-thiadiazol-2-yl)-4-((2R,5S)-4-isobutyryl-2,5-dimethylpiperazin-1-yl)-9H-pyrimido[4,5-b]indole-7-sulfonamide] | < 100 | < 100 |
| CCN(CC)C1CCN(c2ncnc3c2c2ccc(S(=O)(=O)NC4(C#N)CC4)cc2n3-c2nnc(C(F)F)s2)C[C@@H]1F (stereo partly drawn) [Example 206, N-(1-Cyanocyclopropyl)-4-((3S)-4-(diethylamino)-3-fluoropiperidin-1-yl)-9-(5-(difluoromethyl)-1,3,4-thiadiazol-2-yl)-9H-pyrimido[4,5-b]indole-7-sulfonamide] | < 100 | < 100 |
| CN1CC(C(=O)N2CCN(c3ncnc4c3c3ccc(S(=O)(=O)NC5(C#N)CC5)cc3n4-c3nnc(C(F)F)s3)CC2)C1 [Example 65, N-(1-Cyanocyclopropyl)-9-(5-(difluoromethyl)-1,3,4-thiadiazol-2-yl)-4-(4-(1-methylazetidine-3-carbonyl)piperazin-1-yl)-9H-pyrimido [4,5-b]indole-7-sulfonamide] | 100 to 1000 | < 100 |
